Assay results as given in ChEMBL document CHEMBL1821627, “Medicinal chemistry as a conduit for the modulation of quorum sensing” (J Med Chem, 2010).
One block for each compound: values may come before it. Where a SMILES comes first, the peptide text is derived from it. Bridges are numbered along the chain shown (N, C = ends). [ ]: non-standard residue; d: D form. NMeL = CN[C@@H](CC(C)C)C(=O)O; Dap = NC[C@H](N)C(=O)O; Ava = NCCCCC(=O)O

How the values were obtained:
[1] = Inhibition of autoinducer-stimulated quorum sensing regulated bioluminescence in Vibrio fischeri by luminescence assay; parameters: species or system Aliivibrio fischeri
[2] = Inhibition of quorum sensing regulated bioluminescence in Vibrio harveyi
[3] = Inhibition of Staphylococcus aureus Quorum sensing system AgrC-II activation after 60 to 90 minutes by beta-lactamase reporter assay
[4] = Inhibition of Staphylococcus aureus Quorum sensing system AgrC-I activation after 60 to 90 minutes by beta-lactamase reporter assay
[5] = Induction of quorum sensing activity in Pseudomonas aeruginosa assessed as maximal induction of LasR-dependent yellow fluorescent protein emission by luminescence assay
[6] = target: T1, Transcriptional activator protein LasR (Pseudomonas aeruginosa (strain ATCC 15692 / PAO1 / 1C / PRS 101 / LMG12228), UniProt P25084); experiment: Agonist activity at Pseudomonas aeruginosa LasR cognate receptor expressed in Escherichia coli harboring pKDT17 assessed as activation of lasB expression by LacZ reporter gene assay; format: functional
T1 sequence (P25084 whole entry): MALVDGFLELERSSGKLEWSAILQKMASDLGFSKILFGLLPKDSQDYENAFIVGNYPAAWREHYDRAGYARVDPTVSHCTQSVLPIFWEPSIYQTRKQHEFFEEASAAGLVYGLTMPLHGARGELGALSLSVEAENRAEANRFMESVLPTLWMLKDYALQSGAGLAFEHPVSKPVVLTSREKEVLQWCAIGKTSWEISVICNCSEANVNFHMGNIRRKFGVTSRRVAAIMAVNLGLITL

[7] = target: T1, Transcriptional activator protein LasR; experiment: Antagonist activity at Pseudomonas aeruginosa LasR receptor assessed as inhibition of bioluminescence by reporter gene assay; format: functional
[8] = target: T2, Autoinducer 1 sensor kinase/phosphatase LuxN (Vibrio harveyi, UniProt P0C5S6); experiment: Inhibition of LuxN-dependent bioluminescence in Vibrio harveyi
T2 sequence (P0C5S6 whole entry): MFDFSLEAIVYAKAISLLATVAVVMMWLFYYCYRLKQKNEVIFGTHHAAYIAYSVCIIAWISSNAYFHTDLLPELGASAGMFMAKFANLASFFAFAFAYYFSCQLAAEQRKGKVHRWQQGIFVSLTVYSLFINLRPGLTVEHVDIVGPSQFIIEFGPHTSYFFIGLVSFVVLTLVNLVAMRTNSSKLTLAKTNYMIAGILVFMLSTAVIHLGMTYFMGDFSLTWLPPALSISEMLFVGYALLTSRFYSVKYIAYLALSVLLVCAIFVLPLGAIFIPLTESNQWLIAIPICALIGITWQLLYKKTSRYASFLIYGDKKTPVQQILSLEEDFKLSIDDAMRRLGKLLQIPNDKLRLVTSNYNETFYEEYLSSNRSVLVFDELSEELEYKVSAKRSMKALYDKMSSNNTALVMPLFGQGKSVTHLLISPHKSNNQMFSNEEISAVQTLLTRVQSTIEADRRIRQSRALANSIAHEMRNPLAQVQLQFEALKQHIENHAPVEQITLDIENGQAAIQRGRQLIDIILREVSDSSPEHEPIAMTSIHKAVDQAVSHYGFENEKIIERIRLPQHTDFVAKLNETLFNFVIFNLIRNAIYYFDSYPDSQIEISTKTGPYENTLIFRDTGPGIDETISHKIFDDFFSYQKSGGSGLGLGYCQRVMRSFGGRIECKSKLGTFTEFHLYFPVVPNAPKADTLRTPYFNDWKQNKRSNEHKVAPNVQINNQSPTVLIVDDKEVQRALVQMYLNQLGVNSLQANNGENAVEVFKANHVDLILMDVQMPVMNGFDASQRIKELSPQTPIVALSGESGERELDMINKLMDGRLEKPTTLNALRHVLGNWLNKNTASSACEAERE

[9] = tested on: Chromobacterium violaceum; experiment: In vivo inhibition of violacein production in Chromobacterium violaceum; format: functional, organism-based
Vibrio harveyi = experiment: Induction of quorum sensing regulated bioluminescence in Vibrio harveyi by luminescence assay
Aliivibrio fischeri = experiment: Induction of quorum sensing regulated bioluminescence in Vibrio fischeri by luminescence assay relative to natural autoinducer
[10] = Inhibition of quorum sensing Salmonella Typhimurium by beta-galactosidase transcription assay in presence of 50 uM DPD; parameters: species or system Salmonella enterica subsp. enterica serovar Typhimurium
[11] = Inhibition of quorum sensing in Pseudomonas aeruginosa assessed as inhibition of LasR-dependent yellow fluorescent protein emission by luminescence assay

SMILES: CCCC(=O)CC(=O)N[C@H]1CCSC1=O
- IC50 [1]: 131 nM

SMILES: CCCCCCCCCCCC(=O)N[C@H]1CCOC1=O
- EC50 [6]: 33 nM

SMILES: O=C(CCCCCCCCCN=C=S)CC(=O)N[C@H]1CCOC1=O
- IC50 [7]: 113 µM

SMILES: CCCCCCCCC(=O)N[C@H]1CCOC1=O
- IC50 [1]: 12.4 nM

SMILES: COc1ccc(CNC(=O)C(NS(=O)(=O)c2ccc3nc(C)sc3c2)C(C)C)cc1 (stereo unspecified)
- IC50 [8]: 2900 nM

SMILES: O=C1[C@@H](O)COC1(O)C(F)(F)F (stereo partly specified)
- EC50 (Vibrio harveyi): 30 µM

SMILES: CCCCCCCC(=O)CC(=O)N[C@H]1CCOC1=O
- EC50 [6]: 15 nM

SMILES: CC(=O)C(=O)[C@@H](O)CO
- EC50 (Vibrio harveyi): 3 µM

SMILES: CCCCC/C=C/CCC(=O)CC(=O)N[C@H]1CCOC1=O
- EC50 [6]: 10 nM

SMILES: CC(=O)CCCC(=O)N[C@H]1CCOC1=O
- Activity (Aliivibrio fischeri): 10%

SMILES: CCCCCCC(=O)C(=O)[C@@H](O)CO
- IC50 [10]: 24.9 µM

SMILES: CCOC(=O)CS(=O)(=O)c1ccc(-c2ccc3c(c2)OCCO3)cc1
- IC50 [2]: 158 µM

SMILES: [N-]=[N+]=NCCCCC(=O)C(=O)[C@@H](O)CO
- IC50 [10]: 20.3 µM

SMILES: O=C(CCCCCCCCCCN=C=S)CC(=O)N[C@H]1CCOC1=O
- IC50 [7]: 45.2 µM

SMILES: CCCCCC(=O)CC(=O)N[C@H]1CCOC1=O
- EC50 [6]: 150 nM
- Activity (Aliivibrio fischeri): 50%

SMILES: CCCCCCCCCCCCn1nnc(CC(=O)O)n1
- IC50 [11]: 30 nM

SMILES: CCCCCCCCCC(=O)CC(=O)N[C@H]1CCSC1=O
- EC50 [6]: 7 nM

SMILES: CCC(=O)C(=O)[C@@H](O)CO
- IC50 [10]: > 50 µM

SMILES: CC[C@H](C)[C@@H]1NC(=O)[C@H](Cc2ccccc2)NC(=O)[C@H](C)NC(=O)[C@@H](NC(=O)[C@@H](NC(=O)[C@H](CO)NC(=O)[C@@H](N)Cc2ccc(O)cc2)[C@@H](C)O)CSC(=O)[C@H](CSC)NC1=O (H-YSTCAFIC(Me); thioester 4-C)
- IC50 ([3]; read-out: IC50): 0.004 µM
- IC50 ([4]; read-out: IC50): 21 nM

Further lines, results first:

- IC50 [2]: > 400 µM
SMILES: CCOC(=O)CS(=O)(=O)c1ccc(-c2cncc3ccccc23)cc1

- IC50 ([3]; read-out: IC50): 507 µM
- IC50 ([4]; read-out: IC50): 1140 nM
SMILES: CC(=O)N[C@H]1CSC(=O)[C@H](Cc2ccccc2)NC(=O)[C@H](CC(C)C)NC(=O)CCCCNC1=O (Ac-C[Ava]LF; thioester 1-C)

- EC50 [5]: 920 nM
SMILES: Cc1cc(Br)cc(CNC(=O)c2ccccc2Cl)c1OC(=O)c1ccc(Cl)cc1Cl

- IC50 [2]: 9 µM
SMILES: Cc1ccc(B(O)O)cc1F

- IC50 ([3]; read-out: IC50): 1.16 µM
- IC50 ([4]; read-out: IC50): 189 nM
SMILES: CC(=O)N[C@H]1CSC(=O)[C@H](Cc2ccccc2)NC(=O)[C@H](CC(C)C)NC(=O)[C@H](CO)NC(=O)CNC1=O (Ac-CGSLF; thioester 1-C)

- IC50 [9]: 295 nM
SMILES: O=C(CCCOc1ccc(Cl)cc1)NC1CCOC1=O (stereo unspecified)

- IC50 [2]: 4 µM
SMILES: Cc1ccc(B(O)O)c(F)c1

- IC50 [2]: 8.7 µM
SMILES: CCOC(=O)CS(=O)(=O)c1ccc(-c2ccccc2)cc1

- IC50 [3]: Not Active
- IC50 [4]: Not Active
SMILES: CC(=O)N[C@H]1CSC(=O)[C@H](Cc2ccccc2)NC(=O)[C@H](CC(C)C)N(C)C(=O)[C@H](CO)NC(=O)[C@H](CO)NC1=O (Ac-CSS[NMeL]F; thioester 1-C)

- IC50 [2]: 4 µM
SMILES: O=Cc1ccc(O)c(O)c1O

- IC50 [2]: 2 µM
SMILES: Oc1cccc(O)c1O [PYROGALLOL]

- IC50 ([3]; read-out: IC50): 167 µM
- IC50 ([4]; read-out: IC50): 1390 nM
SMILES: CC(=O)N[C@H]1CNC(=O)[C@H](Cc2ccccc2)NC(=O)[C@H](CC(C)C)NC(=O)[C@H](CO)NC(=O)[C@H](CO)NC1=O (Ac-[Dap]SSLF; lactam 1-C)

- IC50 [2]: 59 µM
SMILES: Oc1ccccc1O [CATECHOL]

- EC50 [5]: 240 nM
SMILES: O=C(Oc1c(Br)cc(Br)cc1CNC(=O)c1ccccc1Cl)c1ccc(F)cc1

- IC50 [2]: 5.7 µM
SMILES: CCOC(=S)CS(=O)(=O)c1ccc(-c2ccccc2)cc1

- IC50 [2]: 12 µM
SMILES: O=c1ccc2ccc(O)c(O)c2o1 [DAPHNETIN]
